Experiments:
[1] = test system: HEK-293 cells; assay: MTT assay, HEK-293 cells; assay type: cell-based, human; conditions: non-cancer cells, 48 h of treatment, mean ± SD
Procedure: (§1) The human prostate cancer cell lines PC-3, DU145, 22Rv1 and LNCaP, as well as human prostate non-cancer cell line PNT2 were purchased from ATCC (Manassas, VA, USA). HEK 293T (human embryonic kidney cells) and MRC-9 (human fibroblast cells) cell lines were purchased from ECACC (Salisbury, UK). […] Authentication of all cell lines used was recently performed by a commercial service (Multiplexion GmbH, Heidelberg, Germany).
(§2) Cells were cultured as monolayers at 37 °C in a humidified atmosphere with 5% (v/v) CO2 in the correspondent culture medium: 10% FBS/RPMI medium (RPMI medium supplemented with Glutamax^TM-I (gibco® Life technologies^TM, Paisley, UK) containing 10% fetal bovine serum (FBS, gibco® Life technologies^TM) and 1% penicillin/streptomycin (Invitrogen)) for PNT2, LNCaP, 22Rv1, PC-3 and DU145 and cells; 10% FBS/DMEM medium (DMEM medium supplemented with Glutamax^TM-I (gibco® Life technologies^TM) containing 10% FBS and 1% penicillin/streptomycin (gibco® Life technologies^TM)) for MRC-9 and HEK 293 cells. Cells were continuously kept in culture for a maximum of 3 months, and were regularly checked for stable phenotype and mycoplasma infection.
(§3) Effect of the drugs on cell viability in terms of metabolic activity was assessed by MTT assay, as previously reported. Cells were pre-incubated overnight in 96-well plates (6 × 10^3 cells/well in 100 μL/well) in the correspondent culture media. Then, the medium was replaced with fresh 10% FBS/RPMI medium containing the investigated compounds (100 μL/well), and cells were incubated for 48 h, unless otherwise stated. Next, 10 μL/well of (3-(4,5-dimethylthiazol-2-yl)-2,5-diphenyltetrazolium bromide) reagent (MTT, 5 mg/mL) was added. After 2–4 h of incubation, the media was aspirated and the plates were dried. Then, 50 μL/well of DMSO was added to each well and the cell viability was measured using an Infinite F200PRO reader (TECAN, Männedorf, Switzerland). Results were calculated using the GraphPad Prism software v.9.1.1 (GraphPad Software, San Diego, CA, USA) and are represented as IC50 of the compounds calculated using the cells treated with the solvent alone as a control.

[2] = test system: DU145 cells; assay: MTT assay, DU145 cells; assay type: cell-based, human; conditions: prostate cancer cells, 48 h of treatment, mean ± SD
Procedure: as §1, §2, §3

[3] = test system: non-cancer cell lines versus cancer cell lines; assay: Selectivity index from MTT IC50s; assay type: cell-based, human; conditions: MTT; for Selectivity index, IC50 (non-prostate) / IC50 (prostate): mean IC50 MRC-9 and HEK-293 versus mean IC50 prostate cancer cell lines plus PNT2; for Selectivity index, IC50 (non-cancer) / IC50 (cancer): mean IC50 non-cancer cell lines versus mean IC50 cancer cell lines
Procedure: as §3, with “Next, SAR analysis was performed to identify the structural elements that are beneficial for anticancer activity of the fascaplysin-related molecules. Considering the complex and heterogeneous nature of tumors even within the same patient, we used calculated mean IC50 values of each drug in all prostate cancer cells for further analysis (Figure 2A). To identify the drug candidates with the highest therapeutic potential, the selectivity index (SI) was calculated as mean IC50 in non-cancer cells versus mean IC50 in cancer cells (Figure 2B), or as a mean IC50 in non-cancer (MRC-9 and HEK293) cells versus mean IC50 in prostate cells (cancer PC-3, 22Rv1, DU145, LNCaP and non-cancer PNT2 cells) (Figure 2C). Finally, to estimate the effects on cellular metabolism, we compared the activity evaluated by using trypan blue assay versus MTT assay (Figure 2D). Effect” for “Effect”, “2-4” for “2–4”, “F200PRO” left out

[4] = test system: 22Rv1 cells; assay: MTT assay, 22Rv1 cells; assay type: cell-based, human; conditions: prostate cancer cells, 48 h of treatment, mean ± SD
Procedure: as §1, §2, §3

[5] = test system: PNT2 cells; assay: MTT assay, PNT2 cells; assay type: cell-based, human; conditions: non-cancer cells, 48 h of treatment, mean ± SD
Procedure: as §1, §2, §3

[6] = test system: PC-3 cells; assay: MTT assay, PC-3 cells; assay type: cell-based, human; conditions: prostate cancer cells, 48 h of treatment, mean ± SD
Procedure: as §1, §2, §3

[7] = test system: 22Rv1 cells; assay: DNA fragmentation (apoptosis, sub-G1), flow cytometry with PI staining; assay type: cell-based, human; conditions: treated at IC50 (MTT assay) for 48 h, mean ± SD
Procedure: The effects on cell cycle progression and DNA fragmentation were analyzed by flow cytometry using PI staining, as described before. Cells (2 × 10^5 cells/well) were pre-incubated overnight in 6-well plates and then treated with the investigated drugs in fresh culture media (2 mL/well) for 48 h. Cells were harvested by trypsinization, fixed in 70% EtOH, stained with PI solution and analyzed by FACS Calibur (BD Bioscience, San Jose, CA, USA). The results were quantified using BD Bioscience Cell Quest Pro v.5.2.1. software (BD Bioscience). The cells appearing as a sub-G1 population (containing fragmented DNA) were considered to be apoptotic.

[8] = test system: 22Rv1 cells; assay: Trypan blue-based viability assay; assay type: cell-based, human; conditions: 48 h of treatment, mean ± SD, read-out: IC50, trypan blue staining assay
Procedure: The effect of the drugs on cell viability in terms of cellular membrane integrity was evaluated by the trypan blue exclusion assay as described before. In brief, cells (0.2 × 10^6 cells/well) were seeded in 6-well plates and incubated overnight, and the media was replaced with fresh media (1 mL/well) containing drugs at indicated concentrations. After treatment for 48 h, the cells were harvested by trypsinization, stained with trypan blue and the viability was measured using an automatic Beckman Coulter Vi-CELL (Beckman Coulter, Krefeld, Germany). Trypan blue-positive cells were assumed to have damaged cellular membrane (i.e., dead), whereas trypan blue-negative cells were considered to have an intact cellular membrane (i.e., alive).

[9] = test system: LNCaP cells; assay: MTT assay, LNCaP cells; assay type: cell-based, human; conditions: prostate cancer cells, 48 h of treatment, mean ± SD
Procedure: as §1, §2, §3

[10] = test system: MRC-9 cells; assay: MTT assay, MRC-9 cells; assay type: cell-based, human; conditions: non-cancer cells, 48 h of treatment, mean ± SD
Procedure: as §1, §2, §3

[11] = test system: prostate cancer cell lines (PC-3, 22Rv1, DU145 and LNCaP); assay: MTT assay, mean over four prostate cancer cell lines; assay type: cell-based; conditions: Homo sapiens; mean of MTT IC50 in PC-3, 22Rv1, DU145 and LNCaP; from Table S1 values; read-out: mean IC50 in cancer cells
Procedure: as §3, with “Next, SAR analysis was performed to identify the structural elements that are beneficial for anticancer activity of the fascaplysin-related molecules. Considering the complex and heterogeneous nature of tumors even within the same patient, we used calculated mean IC50 values of each drug in all prostate cancer cells for further analysis (Figure 2A). To identify the drug candidates with the highest therapeutic potential, the selectivity index (SI) was calculated as mean IC50 in non-cancer cells versus mean IC50 in cancer cells (Figure 2B), or as a mean IC50 in non-cancer (MRC-9 and HEK293) cells versus mean IC50 in prostate cells (cancer PC-3, 22Rv1, DU145, LNCaP and non-cancer PNT2 cells) (Figure 2C). Finally, to estimate the effects on cellular metabolism, we compared the activity evaluated by using trypan blue assay versus MTT assay (Figure 2D). Effect” for “Effect”, “2-4” for “2–4”, “F200PRO” left out

| Structure (SMILES) | IC50 [1] [µM] | IC50 [2] [µM] | Selectivity index, IC50 (non-prostate) / IC50 (prostate) [3] | Selectivity index, IC50 (non-cancer) / IC50 (cancer) [3] | IC50 [4] [µM] | IC50 [5] [µM] | IC50 [6] [µM] | % of sub-G1 apoptotic cells (at IC50) [7] [%] | IC50 [8] [µM] | IC50 [9] [µM] | IC50 [10] [µM] | IC50 ([1]; Homo sapiens, HEK293) [µM] | IC50 ([2]; Homo sapiens, DU-145) [µM] | IC50 ([4]; Homo sapiens, 22Rv1) [µM] | IC50 ([5]; Homo sapiens, PNT2) [µM] | IC50 ([6]; Homo sapiens, PC-3) [µM] | IC50 [11] [µM] | IC50 ([8]; Homo sapiens) [µM] | IC50 ([9]; Homo sapiens, LNCaP) [µM] | IC50 ([10]; Homo sapiens, MRC9) [µM] |
| --- | --- | --- | --- | --- | --- | --- | --- | --- | --- | --- | --- | --- | --- | --- | --- | --- | --- | --- | --- | --- |
| N.N.[Cl][Pt][Cl] [Cis, Cisplatin, reference compound] | 6.44 ± 1.77 | 1.32 ± 0.53 | 0.92 | 1.23 | 0.99 ± 0.29 | 9.41 ± 3.12 | 34.6 | 14.7±3.43 | 0.19 ± 0.044 | 2.75 ± 0.55 | 6.75 ± 1.99 |  |  |  |  |  |  |  |  |  |
| O=C1c2cc(Br)ccc2-[n+]2ccc3c([nH]c4ccc(Br)cc43)c21.[Cl-] [Compound 10, 12,13-dihydro-2,9-dibromo-13-oxopyrido[1,2-a:3,4-b’]diindol-5-ium chloride] |  |  | 2.62 | 1.78 |  |  |  | 24.0±5.37 |  |  |  | 0.25 ± 0.034 | 0.913 ± 0.116 | 0.49 ± 0.039 | 0.614 ± 0.098 | 1.83 ± 0.1 | 1.09 | 0.215 ± 0.036 | 1.13 ± 0.803 | 4.96 ± 0.386 |
| O=C1c2cc(Br)ccc2-[n+]2ccc3c([nH]c4ccc(I)cc43)c21.[Cl-] [Compound 11, 12,13-dihydro-2-bromo-9-iodo-13-oxopyrido[1,2-a:3,4-b’]diindol-5-ium chloride] |  |  | 9.15 | 5.55 |  |  |  | 13.1±2.86 |  |  |  | 0.48 ± 0.052 | 1.35 ± 0.318 | 2.33 ± 0.87 | 0.86 ± 0.072 | 3.14 ± 0.98 | 2 | 1.33 ± 0.277 | 1.17 ± 0.084 | 31.9 ± 7.07 |
| O=C1c2cc(Br)ccc2-[n+]2ccc3c([nH]c4c(Br)cc(Br)cc43)c21.[Cl-] [Compound 13, 12,13-dihydro-2,9,11-tribromo-13-oxopyrido[1,2-a:3,4-b’]diindol-5-ium chloride] |  |  | 2.29 | 1.59 |  |  |  | 27.6±7.52 |  |  |  | 2.25 ± 0.99 | 13.2 ± 4.44 | 3.98 ± 0.3 | 4.38 ± 0.674 | 5.94 ± 0.86 | 7.69 | 4.48 ± 1.65 | 7.63 ± 0.74 | 30 ± 5.8 |
| O=C1c2ccc(Br)cc2-[n+]2ccc3c([nH]c4ccc(Br)cc43)c21.[Cl-] [Compound 15, 12,13-dihydro-3,9-dibromo-13-oxopyrido[1,2-a:3,4-b’]diindol-5-ium chloride] |  |  | 3.56 | 2.15 |  |  |  | 8.63±0.71 |  |  |  | 0.275 ± 0.021 | 0.616 ± 0.094 | 2.24 ± 0.811 | 0.643 ± 0.049 | 2.95 ± 0.23 | 2.1 | 2.85 ± 0.487 | 2.6 ± 0.367 | 12.6 ± 6.94 |
| Cc1c[n+]2c(c3[nH]c4ccccc4c13)C(=O)c1ccccc1-2.[Cl-] [Compound 18, 12,13-dihydro-7-methyl-13-oxopyrido[1,2-a:3,4-b’]diindol-5-ium chloride] |  |  | 0.82 | 0.82 |  |  |  | 23.1±3.42 |  |  |  | 0.59 ± 0.085 | 1.79 ± 0.478 | 0.79 ± 0.038 | 0.956 ± 0.092 | 1.07 ± 0.55 | 1.11 | 0.472 ± 0.185 | 0.803 ± 0.08 | 1.18 ± 0.096 |

Reference: publication PMC8949187, “Study of Structure–Activity Relationships of the Marine Alkaloid Fascaplysin and Its Derivatives as Potent Anticancer Agents” (Marine Drugs, 2022)
